In patent publication US20120121591A1 (priority 2009, published 2012):

Columns and labels:
Type in all cases: cell-based
[1] = biological target: hKv1.3 (Homo sapiens, UniProt P22001); assay: cell-based; conditions: Kv1.3 (IWQ) IC50 (nM, Avg)
[2] = tested on: IL-2 secretion from T cells in human whole blood; conditions: read-out: WB (IL-2) IC50 (nM, Avg)
[3] = tested on: IFN-g secretion from T cells in human whole blood; conditions: read-out: WB (IFNg) IC50 (nM, Avg)

hKv1.3, sequence (P22001 whole entry): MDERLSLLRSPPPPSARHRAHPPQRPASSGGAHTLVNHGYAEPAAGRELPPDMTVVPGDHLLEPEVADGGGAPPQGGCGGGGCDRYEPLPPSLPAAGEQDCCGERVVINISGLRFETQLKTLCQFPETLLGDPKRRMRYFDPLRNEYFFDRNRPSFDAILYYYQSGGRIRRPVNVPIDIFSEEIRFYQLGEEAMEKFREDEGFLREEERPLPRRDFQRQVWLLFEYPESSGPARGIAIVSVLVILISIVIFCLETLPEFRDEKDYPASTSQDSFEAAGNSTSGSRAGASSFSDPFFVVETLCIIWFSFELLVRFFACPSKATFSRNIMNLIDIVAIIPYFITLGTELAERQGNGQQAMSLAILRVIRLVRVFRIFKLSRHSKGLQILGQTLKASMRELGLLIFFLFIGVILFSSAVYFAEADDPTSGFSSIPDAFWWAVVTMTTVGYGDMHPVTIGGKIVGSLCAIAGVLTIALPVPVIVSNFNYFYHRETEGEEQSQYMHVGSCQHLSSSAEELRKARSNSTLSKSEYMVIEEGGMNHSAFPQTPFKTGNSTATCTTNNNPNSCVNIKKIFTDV

| SMILES | IC50 [1] [nM] | IC50 [2] [nM] | IC50 [3] [nM] |
| --- | --- | --- | --- |
| CCCC[C@@H]1NC(=O)[C@H](CO)NC(=O)[C@H](Cc2c[nH]cn2)NC(=O)[C@H](CCCCN)NC(=O)[C@@H]2CSSC[C@@H]3NC(=O)[C@H]([C@@H](C)O)NC(=O)[C@H](CCCCN)NC(=O)[C@H](CCCNC(=N)N)NC(=O)[C@H](CSSC[C@H](NC(=O)[C@H](CCCNC(=N)N)NC(=O)[C@H](CO)NC(=O)[C@H](CCCCN)NC(=O)[C@@H]4CCCN4C(=O)[C@H]([C@@H](C)CC)NC(=O)[C@H]([C@@H](C)O)NC(=O)[C@H](CC(=O)O)NC(=O)[C@H]([C@@H](C)CC)NC(=O)[C@@H](NC(=O)[C@H](CO)NC(=O)[C@@H](N)CCCNC(=N)N)CSSC[C@@H](C(N)=O)NC(=O)[C@H]([C@@H](C)O)NC(=O)CNC3=O)C(=O)N[C@@H]([C@@H](C)O)C(=O)N[C@@H](C)C(=O)N[C@@H](C)C(=O)N[C@@H](CCCCN)C(=O)N2)NC(=O)[C@H](Cc2ccccc2)NC(=O)[C@H](CO)NC(=O)[C@H](CC(C)C)NC(=O)[C@H](CCCNC(=N)N)NC(=O)[C@H](Cc2ccc(O)cc2)NC(=O)[C@H](CCCCN)NC1=O [[Ala15, Lys16,Nle21]ShK-amide] | 0.127 | 0.952 | 1.87 |
| CCCC[C@@H]1NC(=O)[C@H](CO)NC(=O)[C@H](Cc2c[nH]cn2)NC(=O)[C@H](CCCCN)NC(=O)[C@@H]2CSSC[C@@H]3NC(=O)[C@H]([C@@H](C)O)NC(=O)[C@H](CCCCN)NC(=O)[C@H](CCCNC(=N)N)NC(=O)[C@H](CSSC[C@H](NC(=O)[C@H](CCCNC(=N)N)NC(=O)[C@H](CO)NC(=O)[C@H](CCCCN)NC(=O)[C@@H]4CCCN4C(=O)[C@H]([C@@H](C)CC)NC(=O)[C@H]([C@@H](C)O)NC(=O)[C@H](CC(=O)O)NC(=O)[C@H]([C@@H](C)CC)NC(=O)[C@@H](NC(=O)[C@H](CO)NC(=O)[C@@H](N)CCCNC(=N)N)CSSC[C@@H](C(=O)N[C@@H](C)C(=O)O)NC(=O)[C@H]([C@@H](C)O)NC(=O)CNC3=O)C(=O)N[C@@H]([C@@H](C)O)C(=O)N[C@@H](C)C(=O)N[C@@H](Cc3ccccc3)C(=O)N[C@@H](CCCCN)C(=O)N2)NC(=O)[C@H](Cc2ccccc2)NC(=O)[C@H](CO)NC(=O)[C@H](CC(C)C)NC(=O)[C@H](CCCNC(=N)N)NC(=O)[C@H](Cc2ccc(O)cc2)NC(=O)[C@H](CCCCN)NC1=O [[Lys16,N1e21]ShK-Ala] | 33.3 | 0.305 | 0.515 |
| CC[C@H](C)[C@@H]1NC(=O)[C@@H](NC(=O)[C@H](CO)NC(=O)[C@@H](N)CCCNC(=N)N)CSSC[C@@H](C(=O)O)NC(=O)[C@H]([C@@H](C)O)NC(=O)CNC(=O)[C@@H]2CSSC[C@@H]3NC(=O)[C@H](CCC(N)=O)NC(=O)[C@H](Cc4ccccc4)NC(=O)[C@H](C)NC(=O)[C@H]([C@@H](C)O)NC(=O)[C@H](CSSC[C@H](NC(=O)[C@H](Cc4ccccc4)NC(=O)[C@H](CO)NC(=O)[C@H](CC(C)C)NC(=O)[C@H](CCCNC(=N)N)NC(=O)[C@H](Cc4ccc(O)cc4)NC(=O)[C@H](CCCCN)NC(=O)[C@H](CCSC)NC(=O)[C@H](CO)NC(=O)[C@H](Cc4c[nH]cn4)NC(=O)[C@H](CCCCN)NC3=O)C(=O)N[C@@H](CCCNC(=N)N)C(=O)N[C@@H](CCCCN)C(=O)N[C@@H]([C@@H](C)O)C(=O)N2)NC(=O)[C@H](Cc2cccc3ccccc23)NC(=O)[C@H](CO)NC(=O)[C@H](CCCCN)NC(=O)[C@@H]2CCCN2C(=O)[C@H]([C@@H](C)CC)NC(=O)[C@H]([C@@H](C)O)NC(=O)[C@H](CC(=O)O)NC1=O [[1-Nal11]ShK] | 0.922 | 1.14 | 1.65 |
| CC[C@H](C)[C@@H]1NC(=O)[C@@H](NC(=O)[C@H](CO)NC(=O)[C@@H](N)CCCNC(=N)N)CSSC[C@@H](C(=O)O)NC(=O)[C@H]([C@@H](C)O)NC(=O)CNC(=O)[C@@H]2CSSC[C@@H]3NC(=O)[C@H](CCCCN)NC(=O)[C@H](Cc4ccccc4)NC(=O)[C@H](C)NC(=O)[C@H]([C@@H](C)O)NC(=O)[C@H](CSSC[C@H](NC(=O)[C@H](Cc4ccccc4)NC(=O)[C@H](CO)NC(=O)[C@H](CC(C)C)NC(=O)[C@H](CCCNC(=N)N)NC(=O)[C@H](Cc4ccc(O)cc4)NC(=O)[C@H](CCCCN)NC(=O)[C@H](CCSC)NC(=O)[C@H](CO)NC(=O)[C@H](Cc4c[nH]cn4)NC(=O)[C@H](CCCCN)NC3=O)C(=O)N[C@@H](CCCNC(=N)N)C(=O)N[C@@H](CCC(=O)O)C(=O)N[C@@H]([C@@H](C)O)C(=O)N2)NC(=O)[C@H](CCCNC(=N)N)NC(=O)[C@H](CO)NC(=O)[C@H](CCCCN)NC(=O)[C@@H]2CCCN2C(=O)[C@H]([C@@H](C)CC)NC(=O)[C@H]([C@@H](C)O)NC(=O)[C@H](CC(=O)O)NC1=O [[Lys16, Glu30]ShK] | 0.073 | 0.032 | 0.081 |
| CCCC[C@@H]1NC(=O)[C@H](CO)NC(=O)[C@H](Cc2c[nH]cn2)NC(=O)[C@H](CCCCN)NC(=O)[C@@H]2CSSC[C@@H]3NC(=O)[C@H]([C@@H](C)O)NC(=O)[C@H](CCCCN)NC(=O)[C@H](CCCNC(=N)N)NC(=O)[C@H](CSSC[C@H](NC(=O)[C@H](CCCNC(=N)N)NC(=O)[C@H](CCC(=O)O)NC(=O)[C@H](CCCCN)NC(=O)[C@@H]4CCCN4C(=O)[C@H]([C@@H](C)CC)NC(=O)[C@H]([C@@H](C)O)NC(=O)[C@H](CC(=O)O)NC(=O)[C@H]([C@@H](C)CC)NC(=O)[C@@H](NC(=O)[C@H](CO)NC(=O)[C@@H](N)CCCNC(=N)N)CSSC[C@@H](C(N)=O)NC(=O)[C@H]([C@@H](C)O)NC(=O)CNC3=O)C(=O)N[C@@H]([C@@H](C)O)C(=O)N[C@@H](C)C(=O)N[C@@H](Cc3ccccc3)C(=O)N[C@@H](CCCCN)C(=O)N2)NC(=O)[C@H](Cc2ccccc2)NC(=O)[C@H](CO)NC(=O)[C@H](CC(C)C)NC(=O)[C@H](CCCNC(=N)N)NC(=O)[C@H](Cc2ccc(O)cc2)NC(=O)[C@H](CCCCN)NC1=O [[Glu10,Lys16,Nle21]ShK-amide] | 0.127 | 0.776 | 1.26 |
| CC[C@H](C)[C@@H]1NC(=O)[C@@H](NC(=O)[C@H](CO)NC(=O)[C@@H](N)CCCNC(=N)N)CSSC[C@@H](C(=O)N[C@@H](C)C(=O)O)NC(=O)[C@H]([C@@H](C)O)NC(=O)CNC(=O)[C@@H]2CSSC[C@@H]3NC(=O)[C@H](CCCCN)NC(=O)[C@H](Cc4ccccc4)NC(=O)[C@H](C)NC(=O)[C@H]([C@@H](C)O)NC(=O)[C@H](CSSC[C@H](NC(=O)[C@H](Cc4ccccc4)NC(=O)[C@H](CO)NC(=O)[C@H](CC(C)C)NC(=O)[C@H](CCCNC(=N)N)NC(=O)[C@H](Cc4ccc(O)cc4)NC(=O)[C@H](CCCCN)NC(=O)[C@H](CC(N)=O)NC(=O)[C@H](CO)NC(=O)[C@H](Cc4c[nH]cn4)NC(=O)[C@H](CCCCN)NC3=O)C(=O)N[C@@H](CCCNC(=N)N)C(=O)N[C@@H](CCCCN)C(=O)N[C@@H]([C@@H](C)O)C(=O)N2)NC(=O)[C@H](CCCNC(=N)N)NC(=O)[C@H](CO)NC(=O)[C@H](CCCCN)NC(=O)[C@@H]2CCCN2C(=O)[C@H]([C@@H](C)CC)NC(=O)[C@H]([C@@H](C)O)NC(=O)[C@H](CC(=O)O)NC1=O [[Lys16,Asn21]ShK-Ala] | 33 | 0.891 | 0.693 |
| CCCC[C@@H]1NC(=O)[C@H](CO)NC(=O)[C@H](Cc2c[nH]cn2)NC(=O)[C@H](CCCCN)NC(=O)[C@@H]2CSSC[C@@H]3NC(=O)[C@H]([C@@H](C)O)NC(=O)[C@H](CCCCN)NC(=O)[C@H](CCCNC(=N)N)NC(=O)[C@H](CSSC[C@H](NC(=O)[C@H](CCCNC(=N)N)NC(=O)[C@H](CO)NC(=O)[C@H](CCCCN)NC(=O)[C@@H]4CCCN4C(=O)[C@H]([C@@H](C)CC)NC(=O)[C@H]([C@@H](C)O)NC(=O)[C@H](CC(=O)O)NC(=O)[C@H]([C@@H](C)CC)NC(=O)[C@@H](NC(=O)[C@H](CO)NC(=O)[C@@H](N)CCCNC(=N)N)CSSC[C@@H](C(N)=O)NC(=O)[C@H]([C@@H](C)O)NC(=O)CNC3=O)C(=O)N[C@@H]([C@@H](C)O)C(=O)N[C@@H](C)C(=O)N[C@@H](Cc3ccccc3)C(=O)N[C@@H](Cc3c[nH]cn3)C(=O)N2)NC(=O)[C@H](Cc2ccccc2)NC(=O)[C@H](CO)NC(=O)[C@H](CC(C)C)NC(=O)[C@H](CCCNC(=N)N)NC(=O)[C@H](Cc2ccc(O)cc2)NC(=O)[C@H](CCCCN)NC1=O [[His, Nle21]ShK-amide] | 0.139 | 0.24 | 0.148 |
| CC[C@H](C)[C@@H]1NC(=O)[C@@H](NC(=O)[C@H](CO)NC(=O)[C@@H](N)CCCNC(=N)N)CSSC[C@@H](C(=O)O)NC(=O)[C@H]([C@@H](C)O)NC(=O)CNC(=O)[C@@H]2CSSC[C@@H]3NC(=O)[C@H](CCC(N)=O)NC(=O)[C@H](Cc4ccccc4)NC(=O)[C@H](C)NC(=O)[C@H]([C@@H](C)O)NC(=O)[C@H](CSSC[C@H](NC(=O)[C@H](Cc4ccccc4)NC(=O)[C@H](CO)NC(=O)[C@H](CC(C)C)NC(=O)[C@H](CCCNC(=N)N)NC(=O)[C@H](Cc4ccc(O)cc4)NC(=O)[C@H](CCCCN)NC(=O)[C@H](CCSC)NC(=O)[C@H](CO)NC(=O)[C@H](Cc4c[nH]cn4)NC(=O)[C@H](CCCCN)NC3=O)C(=O)N[C@@H](CCCNC(=N)N)C(=O)N[C@@H](CCCCN)C(=O)N[C@@H]([C@@H](C)O)C(=O)N2)NC(=O)[C@H](CCCNC(=N)N)NC(=O)[C@H](CO)NC(=O)[C@H](C)NC(=O)[C@@H]2CCCN2C(=O)[C@H]([C@@H](C)CC)NC(=O)[C@H]([C@@H](C)O)NC(=O)[C@H](CC(=O)O)NC1=O [[Ala9]ShK] | 0.116 | 0.053 | 0.103 |
| CC[C@H](C)[C@@H]1NC(=O)[C@@H](NC(=O)[C@H](CO)NC(=O)[C@@H](N)CCCCN)CSSC[C@@H](C(=O)O)NC(=O)[C@H]([C@@H](C)O)NC(=O)CNC(=O)[C@@H]2CSSC[C@@H]3NC(=O)[C@H](CCC(N)=O)NC(=O)[C@H](Cc4ccccc4)NC(=O)[C@H](C)NC(=O)[C@H]([C@@H](C)O)NC(=O)[C@H](CSSC[C@H](NC(=O)[C@H](Cc4ccccc4)NC(=O)[C@H](CO)NC(=O)[C@H](CC(C)C)NC(=O)[C@H](CCCNC(=N)N)NC(=O)[C@H](Cc4ccc(O)cc4)NC(=O)[C@H](CCCCN)NC(=O)[C@H](CCSC)NC(=O)[C@H](CO)NC(=O)[C@H](Cc4c[nH]cn4)NC(=O)[C@H](CCCCN)NC3=O)C(=O)N[C@@H](CCCNC(=N)N)C(=O)N[C@@H](CCCCN)C(=O)N[C@@H]([C@@H](C)O)C(=O)N2)NC(=O)[C@H](CCCNC(=N)N)NC(=O)[C@H](CO)NC(=O)[C@H](CCCCN)NC(=O)[C@@H]2CCCN2C(=O)[C@H]([C@@H](C)CC)NC(=O)[C@H]([C@@H](C)O)NC(=O)[C@H](CC(=O)O)NC1=O [[Lys1]ShK] | 0.158 | 0.035 | 0.073 |
